Source: publication PMC5601486, “Identification of 4-phenylquinolin-2(1H)-one as a specific allosteric inhibitor of Akt” (Scientific Reports, 2017)
“Also recorded” adds a separate entry of the source.

Columns and labels:
[1] = system: MST3; experiment: KINOMEscan; settings: 50000 nM
Description: KINOMEscan™ selectivity screen
(§1) The assay was perfor med at DiscoveRx Corporation according the methods published previously5. Briefly, Kinase-tagged T7 phage strains were grown in parallel in an E. coli host derived from the BL21 strain. E. coli were grown to log-phase and infected with T7 phage from a frozen stock and incubated with shaking at 32°C until lysis (90-150 minutes). The kinases were produced in HEK-293 cells and subsequently tagged with DNA for qPCR detection. Streptavidin-coated magnetic beads were treated with biotinylated small molecule ligands to generate affinity resins for kinase
(§2) inhibitor or DMSO control was performed in polypropylene 384-well plates for 1 hr at room temperature. After wash with PBS buffer containing 0.05% Tween 20, the beads were incubated in elution buffer (PBS containing 0.05 % Tween 20 and 0.5 μM non-biotinylated affinity ligand) for 30 minutes at room temperature. The kinase concentration in the eluates was measured by qPCR.

[2] = system: GCN2(Kin.Dom.2,S808G); experiment: KINOMEscan; settings: 50000 nM
Description: KINOMEscan™ selectivity screen
as §1, §2

[3] = system: STK16; experiment: KINOMEscan; settings: 50000 nM
Description: KINOMEscan™ selectivity screen
The kinases were produced in HEK-293 cells and subsequently tagged with DNA for qPCR detection. Streptavidin-coated magnetic beads were treated with biotinylated small molecule ligands to generate affinity resins for kinase
as §2

[4] = system: CHEK1; experiment: KINOMEscan; settings: 50000 nM
Description: KINOMEscan™ selectivity screen
as §1, §2

[5] = system: PIK3CA(E545A); experiment: KINOMEscan; settings: 50000 nM
Description: KINOMEscan™ selectivity screen
(§3) Briefly, Kinase-tagged T7 phage strains were grown in parallel in an E. coli host derived from the BL21 strain. E. coli were grown to log-phase and infected with T7 phage from a frozen stock and incubated with shaking at 32°C until lysis (90-150 minutes). The kinases were produced in HEK-293 cells and subsequently tagged with DNA for qPCR detection. Streptavidin-coated magnetic beads were treated with biotinylated small molecule ligands to generate affinity resins for kinase
as §2

[6] = system: CDC2L1; experiment: KINOMEscan; settings: 50000 nM
Description: KINOMEscan™ selectivity screen
as §3, §2

[7] = system: JNK2; experiment: KINOMEscan; settings: 50000 nM
Description: KINOMEscan™ selectivity screen
as §1, §2

[8] = system: DDR2; experiment: KINOMEscan; settings: 50000 nM
Description: KINOMEscan™ selectivity screen
as §1, §2

[9] = system: DYRK2; experiment: KINOMEscan; settings: 50000 nM
Description: KINOMEscan™ selectivity screen
as §1, §2

[10] = system: activated Akt; experiment: Substrate peptide phosphorylation by activated Akt (ELISA-based); type: biochemical; settings: 20 µM G7, ATP and substrate peptide
[11] = system: MRCKB; experiment: KINOMEscan; settings: 50000 nM
Description: as §3, §2

[12] = system: SNRK; experiment: KINOMEscan; settings: 50000 nM
Description: KINOMEscan™ selectivity screen
The assay was perfor med at DiscoveRx Corporation according the methods published previously5. […] The kinases were produced in HEK-293 cells and subsequently tagged with DNA for qPCR detection. Streptavidin-coated magnetic beads were treated with biotinylated small molecule ligands to generate affinity resins for kinase
as §2

[13] = system: PKAC-alpha; experiment: KINOMEscan; settings: 50000 nM
Description: KINOMEscan™ selectivity screen
as §3, §2

[14] = system: ACVR2A; experiment: KINOMEscan; settings: 50000 nM
Description: KINOMEscan™ selectivity screen
as §1, §2

[15] = system: ACVRL1; experiment: KINOMEscan; settings: 50000 nM
Description: KINOMEscan™ selectivity screen
as §1, §2

[16] = system: T1, CDC2L5; experiment: KINOMEscan; type: binding, human; settings: 50000 nM
T1 construct: purchased DiscoveRx KINOMEscan

[17] = system: CDKL2; experiment: KINOMEscan; settings: 50000 nM
Description: KINOMEscan™ selectivity screen
as §3, §2

[18] = system: LZK; experiment: KINOMEscan; settings: 50000 nM
Description: KINOMEscan™ selectivity screen
as §3, §2

[19] = system: PRKR; experiment: KINOMEscan; settings: 50000 nM
Description: KINOMEscan™ selectivity screen
as §1, §2

[20] = system: SGK; experiment: KINOMEscan; settings: 50000 nM
Description: KINOMEscan™ selectivity screen
as §1, §2

[21] = system: PRKD1; experiment: KINOMEscan; settings: 50000 nM
Description: KINOMEscan™ selectivity screen
as §1, §2

[22] = system: NEK7; experiment: KINOMEscan; settings: 50000 nM
Description: KINOMEscan™ selectivity screen
as §1, §2

[23] = system: FLT3; experiment: KINOMEscan; settings: 50000 nM
Description: KINOMEscan™ selectivity screen
as §1, §2

[24] = system: MLK3; experiment: KINOMEscan; settings: 50000 nM
Description: KINOMEscan™ selectivity screen
as §1, §2

[25] = system: CAMK2B; experiment: KINOMEscan; settings: 50000 nM
Description: KINOMEscan™ selectivity screen
as §3, §2

[26] = system: MAPKAPK2; experiment: KINOMEscan; settings: 50000 nM
Description: KINOMEscan™ selectivity screen
as §1, §2

[27] = system: MEK5; experiment: KINOMEscan; settings: 50000 nM
Description: KINOMEscan™ selectivity screen
as §1, §2

[28] = system: TNK1; experiment: KINOMEscan; settings: 50000 nM
Description: KINOMEscan™ selectivity screen
as §1, §2

[29] = system: STK35; experiment: KINOMEscan; settings: 50000 nM
Description: KINOMEscan™ selectivity screen
as §3, §2

[30] = system: FLT3(D835H); experiment: KINOMEscan; settings: 50000 nM
Description: KINOMEscan™ selectivity screen
as §1, §2

[31] = system: BMPR1B; experiment: KINOMEscan; settings: 50000 nM
Description: KINOMEscan™ selectivity screen
as §1, §2

[32] = system: LCK; experiment: KINOMEscan; settings: 50000 nM
Description: KINOMEscan™ selectivity screen
as §1, §2

[33] = system: CDKL5; experiment: KINOMEscan; settings: 50000 nM
Description: KINOMEscan™ selectivity screen
as §3, §2

[34] = system: SRMS; experiment: KINOMEscan; settings: 50000 nM
Description: as §3, §2

[35] = system: CDKL3; experiment: KINOMEscan; settings: 50000 nM
Description: KINOMEscan™ selectivity screen
as §3, §2

[36] = system: KIT(D816H); experiment: KINOMEscan; settings: 50000 nM
Description: as §3, §2

[37] = system: SBK1; experiment: KINOMEscan; settings: 50000 nM
Description: KINOMEscan™ selectivity screen
as §1, §2

**Q.** For `Oc1cc(-c2ccccc2)c2ccccc2n1` [G7, 4-phenylquinolin-2(1H)-one], which “Percent Control” value [1] is on record?
**A.** 59%

**Q.** And the “Percent Control” value [2]?
**A.** 99%

**Q.** And the “Percent Control” value [3]?
**A.** 75%

**Q.** And the “Percent Control” value [4]?
**A.** 85%

**Q.** And the “Percent Control” value [5]?
**A.** 100%

**Q.** And the “Percent Control” value [6]?
**A.** 100%

**Q.** What about the “Percent Control” value [7] of the same compound?
**A.** 68%

**Q.** What about the “Percent Control” value [8] of the same compound?
**A.** 87%

**Q.** And the “Percent Control” value [9]?
**A.** 72%

**Q.** What about the “effect on phosphorylation capability of activated Akt” value [10] of the same compound?
**A.** No effects; also recorded: only negligible change

**Q.** And the “Percent Control” value [11]?
**A.** 84%

**Q.** And the “Percent Control” value [12]?
**A.** 84%

**Q.** And the “Percent Control” value [13]?
**A.** 87%

**Q.** And the “Percent Control” value [14]?
**A.** 100%

**Q.** And the “Percent Control” value [15]?
**A.** 100%

**Q.** And the “Percent Control” value [16]?
**A.** 87%

**Q.** And the “Percent Control” value [17]?
**A.** 69%

**Q.** And the “Percent Control” value [18]?
**A.** 94%

**Q.** What about the “Percent Control” value [19] of the same compound?
**A.** 74%

**Q.** And the “Percent Control” value [20]?
**A.** 66%

**Q.** What about the “Percent Control” value [21] of the same compound?
**A.** 96%

**Q.** And the “Percent Control” value [22]?
**A.** 78%

**Q.** What about the “Percent Control” value [23] of the same compound?
**A.** 13%

**Q.** What about the “Percent Control” value [24] of the same compound?
**A.** 88%

**Q.** And the “Percent Control” value [25]?
**A.** 92%

**Q.** And the “Percent Control” value [26]?
**A.** 100%

**Q.** And the “Percent Control” value [27]?
**A.** 70%

**Q.** And the “Percent Control” value [28]?
**A.** 100%

**Q.** What about the “Percent Control” value [29] of the same compound?
**A.** 90%

**Q.** And the “Percent Control” value [30]?
**A.** 34%

**Q.** What about the “Percent Control” value [31] of the same compound?
**A.** 83%

**Q.** What about the “Percent Control” value [32] of the same compound?
**A.** 80%

**Q.** What about the “Percent Control” value [33] of the same compound?
**A.** 100%

**Q.** And the “Percent Control” value [34]?
**A.** 88%

**Q.** What about the “Percent Control” value [35] of the same compound?
**A.** 89%

**Q.** And the “Percent Control” value [36]?
**A.** 84%

**Q.** What about the “Percent Control” value [37] of the same compound?
**A.** 86%
